Data reported in patent US20230150986A1, “ANTAGONISTS OF THE MUSCARINIC ACETYLCHOLINE RECEPTOR M4” (Vanderbilt University, priority 2019, published 2023).

Molecular target: T1, Human M4 (Homo sapiens, UniProt P08173)
T1 construct: Human or rat M4 cDNA, along with the chimeric G protein Gq,5, were transfected into Chinese hamster ovary (CHO-K1) cells; expressed in transfected cells; host or cells: CHO-K1 (M4/Gqi5/CHO)
T1 sequence (P08173 1-479): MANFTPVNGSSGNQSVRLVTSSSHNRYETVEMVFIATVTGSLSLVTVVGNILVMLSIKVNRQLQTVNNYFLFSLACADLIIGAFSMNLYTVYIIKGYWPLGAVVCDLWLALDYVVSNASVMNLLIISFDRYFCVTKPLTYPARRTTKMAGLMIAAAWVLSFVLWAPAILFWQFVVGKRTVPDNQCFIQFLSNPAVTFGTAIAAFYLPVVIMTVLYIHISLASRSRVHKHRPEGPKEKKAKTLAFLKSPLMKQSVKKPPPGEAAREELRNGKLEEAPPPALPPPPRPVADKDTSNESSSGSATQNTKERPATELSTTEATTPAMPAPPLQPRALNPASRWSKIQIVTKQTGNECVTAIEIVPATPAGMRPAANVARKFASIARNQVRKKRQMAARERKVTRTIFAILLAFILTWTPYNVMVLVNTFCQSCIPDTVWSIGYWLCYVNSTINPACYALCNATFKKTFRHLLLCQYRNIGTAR
Assay: mAChR M4 cell-based functional assay (calcium flux, decrease of EC80 acetylcholine response)
Settings: for Human M4 Emin: % ACh maximum at 30 μM; for IC50: CHO-K1 cells with human M4 and Gqi5, EC80 acetylcholine
Description: Human or rat M4 cDNA, along with the chimeric G protein Gq,5, were transfected into Chinese hamster ovary (CHO-K1) cells purchased from the American Type Culture Collection using Lipofectamine2000. M4/Gqi5/CHO cells were grown in Ham's F-12 medium containing 10% heat-inactivated fetal bovine serum (FBS), 20 mM HEPES, 500 μg/mL G^418 sulfate, and 200 μg/mL Hygromycin B.
For high throughput measurement of agonist-evoked increases in intracellular calcium, CHO-K1 cells stably expressing muscarinic receptors were plated in growth medium lacking G418 and hygromycin at 15,000 cells/20 μL/well in Greiner 384-well black-walled, tissue culture (TC)-treated, clear-bottom plates (VWR). Cells were incubated overnight at 37° C. and 5% CO2. The next day, cells were washed using an ELX 405 (BioTek) with assay buffer; the final volume was then aspirated to 20 μL. Next, 20 μL of a 2.3 μM stock of Fluo-4/acetoxymethyl ester (Invitrogen, Carlsbad, Calif.), prepared as a 2.3 mM stock in DMSO and mixed in a 1:1 ratio with 10% (w/v) Pluronic F-127 and diluted in assay buffer, was added to the wells and the cell plates were incubated for 50 min at 37° C. and 5% CO2. Dye was removed by washing with the ELX 405 and the final volume was aspirated to 20 μL. Compound master plates were formatted in a 10 point concentration-response curve (CRC) format (1:3 dilutions) in 100% DMSO with a starting concentration of 10 or 1 mM using a BRAVO liquid handler (Agilent). Test compound CRCs were then transferred to daughter plates (240 nL) using the Echo acoustic plate reformatter (Labcyte, Sunnyvale, Calif.) and then diluted into assay buffer (40 μL) to a 2× stock using a Thermo Fisher Combi (Thermo Fisher Scientific, Waltham, Mass.).
Calcium flux was measured using the Functional Drug Screening System (FDSS) 6000 or 7000 (Hamamatsu Corporation, Tokyo, Japan) as an increase in the fluorescent static ratio. Compounds were applied to cells (20 μL, 2×) using the automated system of the FDSS at 2 seconds into the protocol and the data were collected at 1 Hz. At 143 s, 10 μL of an EC20 concentration of the muscarinic receptor agonist acetylcholine was added (5×), followed by the addition of […] of an EC80 concentration of acetylcholine at the 268 s time point (5×). Agonist activity was analyzed as a concentration-dependent increase in calcium mobilization upon compound addition. Positive allosteric modulator activity was analyzed as a concentration-dependent increase in the EC2o acetylcholine response. Antagonist activity was analyzed as a concentration-dependent decrease in the EC80 acetylcholine response; for the purposes of the tables herein, an IC50 (inhibitory concentration 50) was calculated as a concentration-dependent decrease of the response elicited by an EC80 concentration of acetylcholine. Concentration-response curves were generated using a four-parameter logistical equation in XLFit curve fitting software (IDBS, Bridgewater, N.J.) for Excel (Microsoft, Redmond, Wash.) or Prism (GraphPad Software, Inc., San Diego, Calif.) or the Dotmatics software platform (Dotmatics, Bishop's Stortford, UK).
Compounds were synthesized as described above. Activity (IC50 and Emin) was determined in the mAChR M4 cell-based functional assay as described above and the data are shown in Table 2.

Human M4 Emin	IC50	SMILES
3%	0.0746 µM	CC(c1ccccn1)N1C[C@H]2C[C@H](Nc3ccc(-c4cc(F)cc(F)c4F)nn3)C[C@H]2C1 (stereo partly drawn) [Compound 13, (3aR,5s,6aS)-2-(1-(pyridin-2-yl)ethyl)-N-(6-(2,3,5-trifluorophenyl)pyridazin-3-yl)octahydrocyclopenta[c]pyrrol-5-amine]
2%	0.06 µM	COc1ccc(OCCN2C[C@H]3C[C@H](Nc4ccc(-c5cc(F)cc(F)c5F)nn4)C[C@H]3C2)cc1 [Compound 59, (3aR,5s,6aS)-2-(2-(4-methoxyphenoxy)ethyl)-N-(6-(2,3,5-trifluorophenyl)pyridazin-3-yl)octahydrocyclopenta[c]pyrrol-5-amine]
3%	0.056 µM	[2H]C([2H])(C1CC(C)(C)OC(C)(C)C1)N1C[C@H]2C[C@H](Nc3ccc(-c4cc(F)cc(F)c4F)nn3)C[C@H]2C1 [Compound 83, (3aR,5s,6aS)-2-((2,2,6,6-tetramethyltetrahydro-2H-pyran-4-yl)methyl-d2)-N-(6-(2,3,5-trifluorophenyl)pyridazin-3-yl)octahydrocyclopenta[c]pyrrol-5-amine]
3%	0.004 µM	Fc1cc(F)c(F)c(-c2ccc(N[C@H]3C[C@@H]4CN(CC5CCSCC5)C[C@@H]4C3)nn2)c1 [Compound 67, (3aR,5s,6aS)-2-((tetrahydro-2H-thiopyran-4-yl)methyl)-N-(6-(2,3,5-trifluorophenyl)pyridazin-3-yl)octahydrocyclopenta[c]pyrrol-5-amine]
11%	1.01 µM	Fc1cc(F)c(F)c(-c2ccc(N[C@H]3C[C@@H]4CN(Cc5ccc6c(c5)OC(F)(F)O6)C[C@@H]4C3)nn2)c1 [Compound 37, (3aR,5s,6aS)-2-((2,2-difluorobenzo[d][1,3]dioxol-5-yl)methyl)-N-(6-(2,3,5-trifluorophenyl)pyridazin-3-yl)octahydrocyclopenta[c]pyrrol-5-amine]
2%	0.00613 µM	[2H]C([2H])(N1C[C@H]2C[C@H](Nc3ccc(-c4cc(F)cc(F)c4F)nn3)C[C@H]2C1)C1(C)CCOCC1 [Compound 14, (3aR,5s,6aS)-2-((4-methyltetrahydro-2H-pyran-4-yl)methyl-d2)-N-(6-(2,3,5-trifluorophenyl)pyridazin-3-yl)octahydrocyclopenta[c]pyrrol-5-amine]
2%	0.062 µM	CC1(C)CC(CN2C[C@H]3C[C@H](Nc4ccc(-c5cc(F)cc(F)c5F)nn4)C[C@H]3C2)CC(C)(C)O1 [Compound 82, (3aR,5s,6aS)-2-((2,2,6,6-tetramethyltetrahydro-2H-pyran-4-yl)methyl)-N-(6-(2,3,5-trifluorophenyl)pyridazin-3-yl)octahydrocyclopenta[c]pyrrol-5-amine]

More lines, now with the values behind:

SMILES	Human M4 Emin	IC50
[2H]C([2H])([C@@H]1CCCCO1)N1C[C@H]2C[C@H](Nc3ccc(-c4cc(F)cc(F)c4F)nn3)C[C@H]2C1 [Compound 43, (3aR,5s,6aS)-2-(((S)-tetrahydro-2H-pyran-2-yl)methyl-d2)-N-(6-(2,3,5-trifluorophenyl)pyridazin-3-yl)octahydrocyclopenta[c]pyrrol-5-amine]	4%	0.00095 µM
[2H]C(C)(c1ccccn1)N1C[C@H]2C[C@H](Nc3ccc(-c4cc(F)cc(F)c4F)nn3)C[C@H]2C1 (stereo partly drawn) [Compound 15, (3aR,5s,6aS)-2-(1-(pyridin-2-yl)ethyl-1-d)-N-(6-(2,3,5-trifluorophenyl)pyridazin-3-yl)octahydrocyclopenta[c]pyrrol-5-amine]	2%	0.0952 µM
Fc1cc(F)c(F)c(-c2ccc(N[C@H]3C[C@@H]4CN(CC5CCCCO5)C[C@@H]4C3)nn2)c1 (single isomer, unassigned) [Compound 27]	4%	0.00214 µM
OC1(CN2C[C@H]3C[C@H](Nc4ccc(-c5cc(F)cc(F)c5F)nn4)C[C@H]3C2)CCCC1 [Compound 61, 1-(((3aR,5s,6aS)-5-((6-(2,3,5-trifluorophenyl)pyridazin-3-yl)amino)hexahydrocyclopenta[c]pyrrol-2(1H)-yl)methyl)cyclopentan-1-ol]	2%	0.0023 µM
Fc1ccc(CN2C[C@H]3C[C@H](Nc4ccc(-c5cc(F)cc(F)c5F)nn4)C[C@H]3C2)nc1 [Compound 21, (3aR,5s,6aS)-2-((5-fluoropyridin-2-yl)methyl)-N-(6-(2,3,5-trifluorophenyl)pyridazin-3-yl)octahydrocyclopenta[c]pyrrol-5-amine]	4%	0.0361 µM
[2H]C([2H])([C@H]1[C@@H]2COC[C@@H]21)N1C[C@H]2C[C@H](Nc3ccc(-c4cc(F)cc(F)c4F)nn3)C[C@H]2C1 [Compound 76, (3aR,5s,6aS)-2-(((1R,58,6s)-3-oxabicyclo[3.1.0]hexan-6-yl)methyl-d2)-N-(6-(2,3,5-trifluorophenyl)pyridazin-3-yl)octahydrocyclopenta[c]pyrrol-5-amine]	3%	0.00059 µM
[2H]C([2H])(c1c(F)cccc1F)N1C[C@H]2C[C@H](Nc3ccc(-c4cc(F)cc(F)c4F)nn3)C[C@H]2C1 [Compound 92, (3aR,5s,6aS)-2-((2,6-difluorophenyl)methyl-d2)-N-(6-(2,3,5-trifluorophenyl)pyridazin-3-yl)octahydrocyclopenta[c]pyrrol-5-amine]	7%	0.75 µM
Fc1cc(F)c(F)c(-c2ccc(N[C@H]3C[C@@H]4CN(C5CC6(COC6)C5)C[C@@H]4C3)nn2)c1 [Compound 35, (3aR,5s,6aS)-2-(2-oxaspiro[3.3]heptan-6-yl)-N-(6-(2,3,5-trifluorophenyl)pyridazin-3-yl)octahydrocyclopenta[c]pyrrol-5-amine]	3%	0.798 µM
Fc1cc(F)c(F)c(-c2ccc(N[C@H]3C[C@@H]4CN(C[C@@H]5COCCO5)C[C@@H]4C3)nn2)c1 [Compound 28, (3aR,5s,6aS)-2-(((R)-1,4-dioxan-2-yl)methyl)-N-(6-(2,3,5-trifluorophenyl)pyridazin-3-yl)octahydrocyclopenta[c]pyrrol-5-amine]	4%	0.00069 µM
OC1(CN2C[C@H]3C[C@H](Nc4ccc(-c5cc(F)cc(F)c5F)nn4)C[C@H]3C2)C2CC3CC(C2)CC1C3 (stereo partly drawn) [Compound 63, 2-(((3aR,5s,6aS)-5-((6-(2,3,5-trifluorophenyl)pyridazin-3-yl)amino)hexahydrocyclopenta[c]pyrrol-2(1H)-yl)methyl)adamantan-2-ol]	3%	0.078 µM
Fc1cc(F)c(F)c(-c2ccc(N[C@H]3C[C@@H]4CN(C[C@@H]5CC6CCC5O6)C[C@@H]4C3)nn2)c1 (stereo partly drawn) [Compound 32, (3aR,5s,6aS)-2-(((2S)-7-oxabicyclo[2.2.1]heptan-2-yl)methyl)-N-(6-(2,3,5-trifluorophenyl)pyridazin-3-yl)octahydrocyclopenta[c]pyrrol-5-amine]	3%	0.00048 µM
